Measurements as given in patent publication US20250129334A1, “LINEAGE SPECIFICATION DURING STEM CELL TRANSITION” (Amniotics AB, priority 2021, published 2025).

Columns and labels:
HE cells = assay: Transplantation of treated HE cells into irradiated NSG mice; format: in vivo
Protocol: Sorted human HE cells (350,000) were mixed with OP9-DL1 stroma (60,000) and subcultured for 3 days with or without DCA (3 mM) on Matrigel (16 μg/cm^2, Corning)-coated 12-well plates in HE medium (32). Between 100,000-150,000 cells from control or DCA samples were transplanted into sub lethally irradiated (300 cGy) 8-week-old female NOD/Cg-Prkdc^scid Il2^tm1Wj1/SzJ mice (NSG, The Jackson Laboratory) together with 20,000 whole BM support cells from C57BV6.SJL mice (CD45.1^+/CD45.2^+, in house breeding). Cells were transplanted in single cell solution in 250 μL PBS with 2% FBS through intravenous tail vein injection. Drinking water of transplanted NSG mice was supplemented with ciprofloxacin (125 mg/L, HEXAL) for 3 weeks after transplantation to prevent infection. Mice were housed in a controlled environment with 12-hour light-dark cycles with chow and water provided ad libitim. Experiments and animal care were performed in accordance with the Lund University Animal Ethical Committee.
Peripheral blood (PB) was collected from the tail vein into EDTA-coated microvette tubes (Sarstedt, Cat #20.1341.100). […]
Bone marrow was analyzed at the 12-week transplantation endpoint. […]

EHT cells = assay: EHT cell subculture with metabolic regulators, flow cytometry; format: cell-based, human; conditions: UK5099 10 μM
Text: The RB9-CB1 human iPSC line (Woods, N.-B. et al. Brief report: efficient generation of hematopoietic precursors and progenitors from human pluripotent stem cell lines. Stem Cells 29, 1158-1164 (2011)) was co-cultured with mouse embryonic fibroblasts (MEFs, Millipore), passaged every six days and processed to form embryoid bodies (EBs) as described previously (Guibentif, C. et al. Single-Cell Analysis Identifies Distinct Stages of Human Endothelial to-Hematopoietic Transition. Cell Reports 19, 10-19 (2017)). The differentiation protocol used in this study was previously described (Ditadi, A. & Sturgeon, C. M. Directed differentiation of definitive hemogenic endothelium and hematopoietic progenitors from human pluripotent stem cells. Methods 101, 65-72 (2016)), however, small modifications were made to induce both primitive and definitive hematopoiesis, as indicated below and in FIG. 6, a. Newly-formed EBs were first kept in SFD medium supplemented with 1 ng/ml Activin A (on days 0-2) and 3 μM CHIR99021 (on day 2 only). At day 3, media was switched to “Day 3-SP34” medium supplemented with 1 ng/ml Activin A (on day 3 only) and 3 μM CHIR99021 (on day 3 only) until day 6. On day 6, media was replaced by “Day 6-SP34” medium, until day 8. In some experiments where indicated, to obtain a higher yield of HSC-like cells, EBs were kept until day 10: in this case, EBs were plated onto Matrigel (8 μg/cm2, Corning)-coated dishes on day 8 and kept until day 10. Media was changed every day, except on days 5 and 7. On day 8 or 10 (as indicated), EBs were singularized with 5-6 rounds of 5-minute incubations with TryPLE Express (Thermo Fisher Scientific). […]

| SMILES | increase of CLP (common lymphoid progenitor) (HE cells; FIG. 3, n, BM week 12) | human CD45+ cells in the peripheral blood (HE cells; week 8, 3-day DCA-treated HE cells) | CD43+GPA+ cell output (EHT cells; day 3, EHT cells) | decrease in CD43+CD45+ population (EHT cells; day 6, deriving from EHT cells) |
| --- | --- | --- | --- | --- |
| O=C(O)C(Cl)Cl [DCA, dichloroacetate] | 3 fold | around 1% |  |  |
| N#CC(=Cc1cn(-c2ccccc2)c2ccccc12)C(=O)O [UK5099, 2-Cyano-3-(1-phenyl-1H-indol-3-yl)-2-propenoic acid] |  |  | absence of bias | 2 fold |
